Results published in US8044068B2, “Aminopyrrolidine compound” (Taisho Pharmaceutical Co., Ltd, priority 2006, dated 2011).

Molecular target: T1, human MC4 receptor (Homo sapiens, UniProt P32245)
T1 construct: purchased Biolinks K.K; host or cells: HEK-293
Assay: MC4 receptor binding experiment ([125I]Nle4-D-Phe7-α-MSH displacement)
Conditions: human MC4 receptor expressing HEK-293 cell membrane; [125I]Nle4-D-Phe7-α-MSH 0.2 nM, 25° C.
Description: The MC4 receptor binding experiment was performed according to the method described in Pharmacology & Toxicology, 79, 161-165, 1996. The human MC4 receptor expressing-cell membrane obtained by expressing the human MC4 receptor in a HEK-293 cell was purchased from Biolinks K.K. The cell membrane was homogenized with 50 mM tris hydrochloride buffer (pH 7.4) containing 2 mM ethylenediaminetetraacetic acid, 10 mM calcium chloride, and 100 μM phenylmethylsulfonyl fluoride. The homogenate was centrifuged at 48,000×g at 4° C. for 20 min. The sediment obtained by centrifugation was rehomogenized with the same buffer, and the homogenate was centrifuged at 48,000×g at 4° C. for 20 min. This procedure was repeated twice. The sediment was suspended in 50 mM tris hydrochloride buffer (pH 7.4) containing 2 mM ethylenediaminetetraacetic acid, 10 mM calcium chloride, 100 μM phenylmethylsulfonyl fluoride, and 0.1% bovine serum albumin at a protein concentration of 100 μg/ml, and the suspension was used as a crude membrane preparation for the binding experiment. The crude membrane preparation (0.25 ml, 25 μg protein) was reacted with [^125I]Nle^4-D-Phe^7-α-MSH (final concentration, 0.2 nM) at 25° C. for 120 min. After completion of the reaction, the reaction solution was filtered by suction, using a cell harvester for the receptor binding experiment, onto a GF/C glass fiber filter paper immersed in 50 mM tris hydrochloride buffer (pH 7.4) containing 0.5% bovine serum for 2 h. Radioactivity on the filter paper was measured using a γ counter. The quantity of binding in the presence of 1 μM Nle^4-D-Phe^7-α-MSH was obtained as nonspecific binding, and specific binding was obtained by deducting the nonspecific binding from the total quantity, binding in the absence of 1 μM Nle^4-D-Phe^7-α-MSH. The test drug was dissolved in 100% DMSO solution and added to the membrane preparation at the same time as [^125I]Nle^4-D-Phe^7-α-MSH. The IC50 value was obtained from the inhibition curve in the range of 10^−10 to 10^−5 M. The binding test results of representative compounds are shown in Table 21 as examples.

T1 sequence (P32245 whole entry): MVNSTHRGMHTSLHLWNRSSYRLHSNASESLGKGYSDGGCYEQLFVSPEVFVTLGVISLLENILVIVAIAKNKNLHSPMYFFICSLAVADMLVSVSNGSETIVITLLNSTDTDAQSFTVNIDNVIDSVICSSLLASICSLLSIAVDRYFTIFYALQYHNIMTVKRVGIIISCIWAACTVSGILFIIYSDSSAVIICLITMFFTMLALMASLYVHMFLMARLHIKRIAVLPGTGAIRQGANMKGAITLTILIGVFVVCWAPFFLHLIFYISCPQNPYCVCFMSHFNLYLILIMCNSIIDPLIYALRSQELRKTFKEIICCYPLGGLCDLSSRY

SMILES	IC50 [nM]
CCCN(CC1CC1)c1cc(C)nc(N[C@H]2CCN(C(=O)Cc3ccc(OC(F)(F)F)cc3)C2)n1 [Compound 4-035]	52
CO[C@H]1CN(c2nc(N[C@H]3CCN(C(=O)Cc4ccc(OC(F)(F)F)cc4)C3)nc3ccccc23)C[C@H]1OC [Compound 1-206]	2.3
Cc1cc(N2CCCOCC2)nc(N[C@H]2CCN(C(=O)Cc3ccc(OC(F)(F)F)cc3)C2)n1 [Compound 4-058]	28
COc1ccc2nc(N[C@H]3CCN(C(=O)C(C)(C)c4ccc(Cl)cc4)C3)cc(C)c2c1 [Compound 3-041]	46
COc1ccc2nc(N[C@H]3CCN(C(=O)Cc4ccc(OC(F)(F)F)cc4)C3)nc(N(C)C)c2c1 [Compound 1-005]	2.8
Cc1cc(N2CCOCC2)nc(N[C@H]2CCN(C(=O)Cc3ccc(OC(F)(F)F)cc3)C2)n1 [Compound 4-044]	56
O=C(Cc1ccccc1-c1ccccc1)N1CC[C@H](Nc2nc(N3CCC(n4ccnc4)CC3)c3ccccc3n2)C1 [Compound 1-095]	22

Further lines, results first:

IC50 [nM]	SMILES
10	O=C(Cc1ccc(OC(F)(F)F)cc1)N1C[C@@H](O)[C@H](Nc2nc(N3CCOCC3)c3cscc3n2)C1 [Compound 8-006]
19	CO[C@@H]1CN(C(=O)Cc2ccc(OC(F)(F)F)cc2)C[C@H]1Nc1cc(N2CCOCC2)cc(C)n1 [Compound 14-002]
16	Cc1cc(N2CCOCC2)cc(N[C@@H]2CN(C(=O)Cc3ccc(OC(F)(F)F)cc3)C[C@H]2O)n1 [Compound 14-001, 1-((3R,4R)-3-hydroxy-4-(6-methyl-4-morpholin-4-ylpyridin-2-ylamino)pyrrolidin-1-yl)-2-(4-trifluoromethoxyphenyl)ethanone]
0.3	COc1ccc2nc(N[C@@H]3CN(C(=O)Cc4ccc(OC(F)(F)F)cc4)C[C@H]3O)nc(N[C@@H]3CCN(S(C)(=O)=O)C3)c2c1 [Compound 11-012]
12	CO[C@@H]1CN(C(=O)Cc2ccc(OC(F)(F)F)cc2)C[C@H]1Nc1cc(C)c2cc(O)ccc2n1 [Compound 12-008, 1-((3R,4R)-3-(6-hydroxy-4-methylquinolin-2-ylamino)-4-methoxypyrrolidin-1-yl)-2-(4-trifluoromethoxyphenyl)ethanone]
